According to PMC8323099 (Journal of Agricultural and Food Chemistry, 2021):

Target: T1, Pru p 1.0101 (Prunus persica, UniProt Q2I6V8)
T1 construct: gene ypr-10
Experiment: biochemical

T1 sequence (Q2I6V8 1-160): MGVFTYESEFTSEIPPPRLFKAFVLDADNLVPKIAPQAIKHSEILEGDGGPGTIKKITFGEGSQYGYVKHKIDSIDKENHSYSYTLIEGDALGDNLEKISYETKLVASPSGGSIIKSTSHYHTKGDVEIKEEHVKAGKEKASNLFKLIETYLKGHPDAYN

C/C(=C\CNc1ncnc2[nH]cnc12)CO [trans-zeatin]
Kd: 1900 ± 400 µM
